According to US8791145B2, “Agricultural formulations with acyl morpholines and polar aprotic co-solvents” (Akzo Nobel Chemicals International B.V., priority 2010, dated 2014):

Experiments:
Format in all cases: physicochemical
[1] = Differential scanning calorimetry, enthalpy of evaporation; conditions: DSC 20° C. to 300° C., 5° C./minute
Experimental: To monitor the enthalpy of evaporation differential scanning calorimetry was used. The reason for these measurements was to determine the cohesion forces between N-formyl morpholine and propylene carbonate. The mixtures (N-formyl morpholine/propylene carbonate in different ratio) were scanned from 20° C. to 300° C. with a temperature increase of 5° C./minute, using a DSC1 calorimeter from Mettler Toledo with STARe software.

[2] = Solubility in acyl morpholines; conditions: 23° C.
Experimental: Various agriculturally active ingredients were dissolved in N-formyl morpholine, N-acetyl morpholine and N-propionyl morpholine in order to evaluate the solubility of the active ingredients in the solvents. This was done by adding the active ingredient to a beaker and thereafter adding the solvent until a clear solution was obtained. The solutions were continually stirred at a temperature of 23° C. during the experiments. When everything had been dissolved, the beakers were left without stirring for 24 h to see if the solution was stable (i.e. no crystallization).

[3] = Dilution of Amicarbazone formulation in water, ocular inspection; set-up: key: +: No crystals; −: Permanent crystals; conditions: 100 g/L diluted to 7 g/L
Experimental: The co-solvents used were propylene carbonate (PC), dimethylformamide (DMF) and ethyl lactate (EL). The amount of each co solvent, in % by weight of the total weight of morpholine and co-solvent, can be seen in table 2. The solutions were diluted in local tap water to an end concentration of 7 g/L and the dilution was judged by ocular inspection with the naked eye, and in the table below the following is used: • + No crystals • − Permanent crystals

O=CN1CCOCC1 [100:0, 4-formyl morpholine]
Enthalpy of evaporation [1]: 382 J/g

COc1c(Cl)ccc(Cl)c1C(=O)O [Dicamba]
Dissolution of active ingredient into N-acetyl morpholine (NAM) [2]: >100 grams of active ingredient in 100 g solvent | Dissolution of active ingredient into N-formyl morpholine (NFM) [2]: >100 grams of active ingredient in 100 g solvent | Dissolution of active ingredient into N-propionyl morpholine (NPM) [2]: >100 grams of active ingredient in 100 g solvent

CC(C)c1nn(C(=O)NC(C)(C)C)c(=O)n1N [Amicarbazone]
Crystallization upon dilution in water ([3]; NAM, 0% DMF): − | Crystallization upon dilution in water ([3]; NAM, 0% EL): − | Crystallization upon dilution in water ([3]; NAM, 0% PC): − | Crystallization upon dilution in water ([3]; NAM, 5% DMF): − | Crystallization upon dilution in water ([3]; NAM, 5% EL): − | Crystallization upon dilution in water ([3]; NAM, 5% PC): − | Crystallization upon dilution in water ([3]; NAM, 10% DMF): − | Crystallization upon dilution in water ([3]; NAM, 10% EL): − | Crystallization upon dilution in water ([3]; NAM, 10% PC): − | Crystallization upon dilution in water ([3]; NAM, 20% DMF): − | Crystallization upon dilution in water ([3]; NAM, 20% EL): − | Crystallization upon dilution in water ([3]; NAM, 20% PC): − | Crystallization upon dilution in water ([3]; NAM, 30% DMF): − | Crystallization upon dilution in water ([3]; NAM, 30% EL): − | Crystallization upon dilution in water ([3]; NAM, 30% PC): − | Crystallization upon dilution in water ([3]; NAM, 50% DMF): − | Crystallization upon dilution in water ([3]; NAM, 50% EL): − | Crystallization upon dilution in water ([3]; NAM, 50% PC): − | Crystallization upon dilution in water ([3]; NAM, 95% DMF): + | Crystallization upon dilution in water ([3]; NAM, 95% EL): − | Crystallization upon dilution in water ([3]; NAM, 95% PC): − | Crystallization upon dilution in water ([3]; NFM, 0% DMF): − | Crystallization upon dilution in water ([3]; NFM, 0% EL): − | Crystallization upon dilution in water ([3]; NFM, 0% PC): − | Crystallization upon dilution in water ([3]; NFM, 5% DMF): − | Crystallization upon dilution in water ([3]; NFM, 5% EL): − | Crystallization upon dilution in water ([3]; NFM, 5% PC): − | Crystallization upon dilution in water ([3]; NFM, 10% DMF): − | Crystallization upon dilution in water ([3]; NFM, 10% EL): − | Crystallization upon dilution in water ([3]; NFM, 10% PC): − | Crystallization upon dilution in water ([3]; NFM, 20% DMF): − | Crystallization upon dilution in water ([3]; NFM, 20% EL): − | Crystallization upon dilution in water ([3]; NFM, 20% PC): + | Crystallization upon dilution in water ([3]; NFM, 30% DMF): − | Crystallization upon dilution in water ([3]; NFM, 30% EL): − | Crystallization upon dilution in water ([3]; NFM, 30% PC): − | Crystallization upon dilution in water ([3]; NFM, 50% DMF): − | Crystallization upon dilution in water ([3]; NFM, 50% EL): − | Crystallization upon dilution in water ([3]; NFM, 50% PC): − | Crystallization upon dilution in water ([3]; NFM, 95% DMF): + | Crystallization upon dilution in water ([3]; NFM, 95% EL): − | Crystallization upon dilution in water ([3]; NFM, 95% PC): −

CC1(C)CCC(Cc2ccc(Cl)cc2)C1(O)Cn1cncn1 (centres unmarked) [Metconazole]
Dissolution of active ingredient into N-acetyl morpholine (NAM) [2]: >25 grams of active ingredient in 100 g solvent | Dissolution of active ingredient into N-formyl morpholine (NFM) [2]: >25 grams of active ingredient in 100 g solvent | Dissolution of active ingredient into N-propionyl morpholine (NPM) [2]: >25 grams of active ingredient in 100 g solvent

CC1COC(=O)O1 (centres unmarked) [0:100, propylene carbonate]
Enthalpy of evaporation [1]: 392 J/g
